# Data taken from patent US4667027A, “Cephem compounds and their production” (Takeda Chemical Industries, Ltd., priority 1984, dated 1987).
# How the values were obtained:
# [1] = system: Pseudomonas aeruginosa IFO 3080; assay: Antimicrobial spectrum, minimal inhibitory concentration (agar dilution); type: cell-based; details: IFO3080, hydrochloride, inoculum 1 loopful of about 10^6/ml
# Description: (§1) *Culture medium: 17.5 g of Bacto antibiotic medium 3 (Difco), 5 g of Bact
# (§2) yeast extract (Difco), 20 g of Bacto agar (Difco), 1 l of distilled water
# (§3) The amount of inoculated microorganism: 1 loopful of about 10^6 /ml o
# (§4) microorganism suspension.
# (§5) *Medium: Bacto antibiotic medium (Difco) 17.5 g, Bacto yeast extract
# (§6) (Difco) 5 g, Bacto agar (Difco) 20 g, distilled water 1 l, pH not
# [2] = system: Salmonella typhimurium IFO 12529; assay: as above; type: cell-based; details: Salmonella enterica, hydrochloride, inoculum 1 loopful of about 10^6/ml
# Description: as §1, §2, §3, §4, §5, §6
# [3] = system: Bacillus subtilis NIHJ PCI 219; assay: as above; type: cell-based; details: hydrochloride, inoculum 1 loopful of about 10^6/ml
# Description: as §1, §2, §3, §4, §5, §6
# [4] = system: Serratia marcescens IFO 12648; assay: as above; type: cell-based; details: IFO12648, hydrochloride, inoculum 1 loopful of about 10^6/ml
# Description: as §1, §2, §3, §4, §5, §6
# [5] = system: Klebsiella pneumoniae IFO 3317; assay: as above; type: cell-based; details: IFO3317, hydrochloride, inoculum 1 loopful of about 10^6/ml
# Description: as §1, §2, §3, §4, §5, §6
# [6] = system: Brevibacterium thiogenitalis ATCC 19240; assay: as above; type: cell-based; details: Corynebacterium glutamicum, ATCC19240, hydrochloride, inoculum 1 loopful of about 10^6/ml
# Description: as §1, §2, §3, §4, §5, §6
# [7] = system: Staphylococcus aureus FDA 209P; assay: as above; type: cell-based; details: FDA209P, hydrochloride, inoculum 1 loopful of about 10^6/ml
# Description: as §1, §2, §3, §4, §5, §6
# [8] = system: Acinetobacter calcoaceticus IFO 12552; assay: as above; type: cell-based; details: IFO12552, hydrochloride, inoculum 1 loopful of about 10^6/ml
# Description: as §1, §2, §3, §4, §5, §6
# [9] = system: Alcaligenes faecalis IFO 13111; assay: as above; type: cell-based; details: IFO13111, hydrochloride, inoculum 1 loopful of about 10^6/ml
# Description: as §1, §2, §3, §4, §5, §6
# [10] = system: Bacillus megaterium IFO 12108; assay: as above; type: cell-based; details: Priestia megaterium, IFO12108, hydrochloride, inoculum 1 loopful of about 10^6/ml
# Description: as §1, §2, §3, §4, §5, §6
# [11] = system: Citrobacter freundii IFO 12681; assay: as above; type: cell-based; details: IFO12681, hydrochloride, inoculum 1 loopful of about 10^6/ml
# Description: as §1, §2, §3, §4, §5, §6
# [12] = system: Proteus vulgalis IFO 3988; assay: as above; type: cell-based; details: hydrochloride, inoculum 1 loopful of about 10^6/ml
# Description: as §1, §2, §3, §4, §5, §6
# [13] = system: Escherichia coli NIHJ JC-2; assay: as above; type: cell-based; details: NIHJJC2, hydrochloride, inoculum 1 loopful of about 10^6/ml
# Description: as §1, §2, §3, §4, §5, §6
# [14] = system: cephalosporinase; assay: β-lactamase stability test, growth inhibition zone with cephalosporinase; type: cell-based; details: cephalosporinase added; test organism Escherichia coli PG8; drug 100 μg/ml; nutrient agar pH 7.0
# Description: (§7) TAN-591A, B, C are stable to various β-lactamases. The results of stability test of the antibiotic to two β-lactamases employing Escherichia coli PG8 as a test organism are shown in Table 5. […]
# [15] = system: Escherichia coli PG8; assay: β-lactamase stability test, growth inhibition zone, no β-lactamase added; type: cell-based; details: β-lactamase not added; test organism Escherichia coli PG8; drug 100 μg/ml; nutrient agar pH 7.0; read-out: diameter of growth inhibition zone
# Description: as §7
# [16] = system: penicillinase; assay: β-lactamase stability test, growth inhibition zone with penicillinase; type: cell-based; details: penicillinase added; test organism Escherichia coli PG8; drug 100 μg/ml; nutrient agar pH 7.0
# Description: as §7
# [17] = Solubility in solvents; type: physicochemical; details: hydrochloride
# [18] = Toxicity after subcutaneous administration to mice; type: in vivo; details: dose of 1 g/kg, hydrochloride
# Description: When Antibiotic TAN-592B hydrochloride was administered subcutaneously in a dose of 1 g/kg to mice, no death was observed, and therefore Antibiotic TAN-592 is considered to be low in toxicity.
# When Antibiotic TAN-591A hydrochloride was administered subcutaneously a dose of 1 g/kg to mice, no death was observed, and therefore Antibiotic TAN-591 is considered to be low in toxicity.
# [19] = system: Escherichia coli 0-111; assay: Therapeutic effect to infectious disease in mice; type: in vivo; details: Escherichia coli, 0111, sc
# Description: The therapeutic effect of TAN-592B.hydrochloride to infectious disease in mice is shown below.
# *Intraperitoneal infection
# The therapeutic effect of TAN-591A.hydrochloride to infectious disease in mice is shown below.
# [20] = dimethylsulfoxide, methanol, acetone, ethyl acetate
# [21] = water, aqueous acetone, aqueous alcohol
SMILES,MIC [1] [µg/mL],MIC [2] [µg/mL],MIC [3] [µg/mL],MIC [4] [µg/mL],MIC [5] [µg/mL],MIC [6] [µg/mL],MIC [7] [µg/mL],MIC [8] [µg/mL],MIC [9] [µg/mL],MIC [10] [µg/mL],MIC [11] [µg/mL],MIC [12] [µg/mL],MIC [13] [µg/mL],diameter of growth inhibition zone [14] [mm],zone of inhibition at 100 µg/mL [15] [mm],diameter of growth inhibition zone [16] [mm],"Solubility [17, 20]","Solubility [17, 21]",death [18],ED50 [19] [mg/kg]
NCCCCC(NC(=O)C(CO)NC(=O)C(N)CO)C(O)CC(=O)OCC1=C(C(=O)O)N2C(=O)C(NC=O)(NC(=O)CCCC(N)C(=O)O)C2SC1 (stereo not shown) [TAN-591B],> 100,25,25,50,50,6.25,> 100,3.13,12.5,12.5,50,25,25,23,23,23,Sparingly soluble,Easily soluble,,
N=C(N)NCCCC(NC(=O)C(CO)NC(=O)C(N)CO)C(O)CC(=O)OCC1=C(C(=O)O)N2C(=O)C(NC(=O)CCCC(N)C(=O)O)C2SC1 (stereo not shown) [TAN-592E],> 50,50,1.56,> 50,> 50,3.13,> 50,> 50,25,1.56,> 50,50,> 50,,,,Sparingly soluble,Easily soluble,,
N=C(N)NCCCC(NC(=O)C(N)CO)C(O)CC(=O)OCC1=C(C(=O)O)N2C(=O)C(NC=O)(NC(=O)CCCC(N)C(=O)O)C2SC1 (stereo not shown) [TAN-592A],50,50,12.5,50,50,3.13,> 50,1.56,3.13,12.5,50,12.5,12.5,28,28,28,Sparingly soluble,Easily soluble,,
"CO[C@@]1(NC(=O)CCC[C@@H](N)C(=O)O)C(=O)N2C(C(=O)O)=C(COC(N)=O)CS[C@@H]21 [CMC, cephamycin C, reference compound]",,,,,,,,,,,,,,,34,34,,,,
CC(N)C(=O)NC(CO)C(=O)NC(CO)C(=O)NC(CCCNC(=N)N)C(O)CC(=O)OCC1=C(C(=O)O)N2C(=O)C(NC=O)(NC(=O)CCCC(N)C(=O)O)C2SC1 (stereo not shown) [TAN-592C],> 50,25,12.5,50,50,6.25,> 50,3.13,6.25,12.5,> 50,25,25,29,29,29,Sparingly soluble,Easily soluble,,
NCCCCC(NC(=O)C(N)CO)C(O)CC(=O)OCC1=C(C(=O)O)N2C(=O)C(NC=O)(NC(=O)CCCC(N)C(=O)O)C2SC1 (stereo not shown) [TAN-591A],100,25,12.5,25,50,6.25,> 100,1.56,6.25,12.5,50,25,25,22,22.5,22,Sparingly soluble,Easily soluble,no death,16.2
N=C(N)NCCCC(NC(=O)C(N)CO)C(O)CC(=O)OCC1=C(C(=O)O)N2C(=O)C(NC(=O)CCCC(N)C(=O)O)C2SC1 (stereo not shown) [TAN-592D],> 50,50,1.56,> 50,> 50,3.13,> 50,> 50,25,1.56,> 50,50,> 50,,,,Sparingly soluble,Easily soluble,,
N=C(N)NCCCC(NC(=O)C(CO)NC(=O)C(N)CO)C(O)CC(=O)OCC1=C(C(=O)O)N2C(=O)C(NC=O)(NC(=O)CCCC(N)C(=O)O)C2SC1 (stereo not shown) [TAN-592B],> 50,25,12.5,25,50,6.25,> 50,1.56,6.25,12.5,25,12.5,25,29,29,29,Sparingly soluble,Easily soluble,no death,16.2
"CC1(C)S[C@@H]2[C@H](NC(=O)Cc3ccccc3)C(=O)N2[C@H]1C(=O)O [PCG, benzylpenicillin, reference compound]",,,,,,,,,,,,,,,22,,,,,
CC(N)C(=O)NC(CO)C(=O)NC(CO)C(=O)NC(CCCNC(=N)N)C(O)CC(=O)OCC1=C(C(=O)O)N2C(=O)C(NC(=O)CCCC(N)C(=O)O)C2SC1 (stereo not shown) [TAN-592F],> 50,> 50,1.56,> 50,> 50,3.13,50,> 50,12.5,1.56,> 50,50,> 50,,,,Sparingly soluble,Easily soluble,,
CC(N)C(=O)NC(CO)C(=O)NC(CO)C(=O)NC(CCCCN)C(O)CC(=O)OCC1=C(C(=O)O)N2C(=O)C(NC=O)(NC(=O)CCCC(N)C(=O)O)C2SC1 (stereo not shown) [TAN-591C],> 100,50,25,50,50,12.5,> 100,3.13,50,25,100,50,50,22,22,22,Sparingly soluble,Easily soluble,,
